Assay results reported in patent US20240352402A1, “ENGINEERED BACTERIA FOR BIOSYNTHESIS OF PEPTIDE-BASED QUORUM SENSING INHIBITORS” (Wisconsin Alumni Research Foundation, priority 2023, published 2024).

System: S. aureus agr quorum sensing system (agr specificity groups I, II, III and IV)
Assay: Staphylococcus aureus agr reporter (antagonism) assay with pDB59 YFP reporter strains
Assay type: cell-based
Settings: high concentrations, WT supernatant as vehicle control
Description: Supernatant samples were lyophilized in a FreeZone Freeze Dryer (Labconco). Fluorescence (EX 500 nm/EM 540 nm) and OD600 were read on a Synergy™ 2 plater reader (BioTek). Data was analyzed using Prism 9 software (GraphPad by Dotmatics).
In both P. megaterium and B. subtilis strains produced in Example 1, AIP production was induced by diluting overnight cultures 1:100 in LB containing 1% xylose. After 8 hours the cultures were centrifuged, and the supernatant was purified with a 0.22 μm filter. The supernatant was then lyophilized and reconstituted in sterile milli-Q water at 10× the original concentration.
Groups I-IV S. aureus strains containing the pDB59 plasmid were used to conduct agr antagonism assays. Assays were conducted as previously described,^1 with the following adjustments: 10×WT P. megaterium or B. subtilis supernatant was used as a vehicle control instead of DMSO and 20 μl of sample/vehicle control and 180 μl of 1:50 overnight S. aureus in brain heart infusion (BHI) growth medium was added to each well for inducible strains P. megaterium (FIG. 2) and B. subtilis (FIG. 3) from Example 1 and constitutive strain B. subtilis (FIG. 5) from Example 2.

AIP-III D4A
inhibition of agr activity in reporter assay (lyophilized B. subtilis supernatant (10x), n=9, FIG. 3): inhibit agr
inhibition of agr activity in reporter assay (lyophilized P. megaterium supernatant (10x), n=3, FIG. 2): inhibit agr
